Tests used:
[1] = 100 kPa, Liquid, Frequency=3 MHz, Linear variable-path acoustic interferometer
[2] = xn = mol fraction of the nth substance listed; details: 100 kPa, Liquid; for speed of sound: Frequency=3 MHz, Linear variable-path acoustic interferometer; for mass density: Pycnometric method

N#Cc1ccccc1 [benzonitrile]
[1]
Details | speed of sound [m/s]
293.15 K | 1436.9
298.15 K | 1418.2
303.15 K | 1400.7
308.15 K | 1384
313.15 K | 1368.2
318.15 K | 1352.9

N#Cc1ccccc1 [benzonitrile] + C=C(C)C(=O)OCC
[2], x1 = 1
Details | mass density [kg/m3] | speed of sound [m/s]
293.15 K | 1003.99 | 1436.9
298.15 K | 1000.32 | 1418.2
303.15 K | 996.65 | 1400.7
308.15 K | 992.98 | 1384
313.15 K | 989.31 | 1368.2
318.15 K | 985.64 | 1352.9

N#Cc1ccccc1 [benzonitrile] + C=C(C)C(=O)OCCCC
[2], x1 = 1
Details | mass density [kg/m3] | speed of sound [m/s]
293.15 K | 1003.99 | 1436.9
298.15 K | 1000.32 | 1418.2
303.15 K | 996.65 | 1400.7
308.15 K | 992.98 | 1384
313.15 K | 989.31 | 1368.2
318.15 K | 985.64 | 1352.9

C=C(C)C(=O)OC [methyl methacrylate] + N#Cc1ccccc1
[2], x2 = 0
Details | mass density [kg/m3] | speed of sound [m/s]
293.15 K | 943.38 | 1200.5
298.15 K | 937.64 | 1183.6
303.15 K | 931.9 | 1168.5
308.15 K | 926.16 | 1152.6
313.15 K | 920.42 | 1135.4
318.15 K | 914.67 | 1118.3
